Values quoted from earlier work, collected in patent US10201537B2 (INFLAMMATORY RESPONSE RESEARCH, INC., priority 2013, dated 2019).
Read-outs that look alike come from different tables or passages of the source.

How the values were obtained:
[1] = system: histamine induced wheal and flare; conditions: levocetirizine 5 mg per day vs fexofenadine 180 mg per day
[2] = in vivo
[3] = for time to steady state level: montelukast, oral
[4] = warfarin, theophylline, digoxin, terfenadine, oral contraceptives, prednisone
influenza = conditions: human, in vivo
[5] = system: granulocyte and macrophage proliferation; conditions: in vivo

Which “principal side effect at higher doses” value (humans; higher doses) does the source give for `O=C(O)COCCN1CCN([C@H](c2ccccc2)c2ccc(Cl)cc2)CC1` [Levocetirizine] here?
The value was “Sedation”.

What about the “doses safely administered in humans” value (humans; in vivo) of the same molecule?
Its value is “up to 30 mg/day”.

And the effectiveness versus fexofenadine [1]?
The effectiveness versus fexofenadine was “more effective than fexofenadine”.

And the eosinophil migration (eosinophil migration)?
Its eosinophil migration is “decrease eosinophil migration”.

And the “inflammatory mediators IL-4, IL-6, and IL-8” value (IL-4, IL-6, and IL-8)?
Its value is “decrease inflammatory mediators”.

What about the “time to steady state level” value [2] of the same molecule?
Its value is 40 h.

For `CC(C)(O)c1ccccc1CC[C@@H](SCC1(CC(=O)O)CC1)c1cccc(/C=C/c2ccc3ccc(Cl)cc3n2)c1` [Montelukast], which “doses without clinically important adverse experiences” value (adult patients; adult patients, 22 weeks) is on record?
Its value is “up to 200 mg/day”.

And the “doses without clinically important adverse experiences” value (adult patients; short-term studies, approximately one week)?
The value was “up to 900 mg/day”.

And the “plasma concentration area under the curve profile” value ([3]; IV montelukast 7 mg vs 10 mg oral tablet)?
Its value is “comparable to the approved 10 mg oral montelukast tablet”.

And the absorption ([3]; in vivo)?
The absorption was “rapidly absorbed”.

And the “linear pharmacokinetics to dose” value ([3]; in vivo)?
The value was no more than 50 mg.

What about the “time to peak plasma concentration” value ([3]; in vivo) of the same molecule?
The value was 3 to 4 h.

What about the “time to steady state level” value [3] of the same molecule?
The value was “less than two days”.

And the “time to steady state level” value ([3]; listed as montelukast)?
The value was “within two days”.

What about the “effect of a standard meal on oral bioavailability and Cmax” value ([3]; standard meal) of the same molecule?
Its value is “not affected by a standard meal”.

What about the drug interactions [4] of the same molecule?
The drug interactions was “no drug interactions”.

Which “influenza related lower respiratory tract complications” value (influenza) does the source give for `CCOC(=O)C1=C[C@@H](OC(CC)CC)[C@H](NC(C)=O)[C@@H](N)C1` [oseltamivir] here?
Its value is “did not appear to reduce influenza related lower respiratory tract complications”.

B1: filgrastim (protein, chains of the INN, looked up)
chain: MTPLGPASSLPQSFLLKCLEQVRKIQGDGAALQEKLCATYKLCHPEELVLLGHSLGIPWAPLSSCPSQALQLAGCLSQLHSGLFLYQGLLQALEGISPELGPTLDTLQLDVADFATTIWQQMEELGMAPALQPTQGAMPAFASAFQRRAGGVLVASHLQSFLEVSYRVLRHLAQP
modifications: N-terminal methionine, non-glycosylated
notes: protein stimulating granulocyte and macrophage proliferation and differentiation
With B1 as the molecule, how does the serious reactions [5] read?
Its serious reactions is “splenic rupture, ARDS, thrombocytopenia, cutaneous vasculitis, and hemorrhage”.
